Measurements reported in patent US8785488B2 (Exelixis Patent Company LLC, priority 2009, dated 2014).

Legend:
human TGR5 (h-TGR5) = target: T1, human TGR5 (h-TGR5) (Homo sapiens, UniProt Q8TDU6); assay: TGR5/CRE-Luciferiase Assay (HEK 293 hTGR5/CRE-Luc cells); format: cell-based; conditions: h-TGR5 CRE-Luc EC50, Table 1; read-out: CRE-Luc (EC50)
T1 construct: expressed in transfected cells
T1 sequence (Q8TDU6 1-330): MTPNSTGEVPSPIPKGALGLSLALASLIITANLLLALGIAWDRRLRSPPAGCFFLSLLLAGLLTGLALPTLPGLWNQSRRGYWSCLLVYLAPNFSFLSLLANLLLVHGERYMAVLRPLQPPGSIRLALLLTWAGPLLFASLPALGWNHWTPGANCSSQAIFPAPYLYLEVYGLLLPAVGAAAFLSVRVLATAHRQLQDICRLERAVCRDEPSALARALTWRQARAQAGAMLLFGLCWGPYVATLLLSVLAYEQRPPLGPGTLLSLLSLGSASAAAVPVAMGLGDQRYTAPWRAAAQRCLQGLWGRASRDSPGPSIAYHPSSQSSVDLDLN
How it was run: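 HEK293 cells stably carrying hTGR5 and a CRE-luciferase reporter were exposed to serially diluted compounds (diluted in DMEM with 5% DMSO) for 6 h. Cells were then lysed in luciferase buffer, luminescence was read, and EC50 values were derived from dose-response curves.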

h-TGR5 = target: T2, h-TGR5 (Homo sapiens, UniProt Q8TDU6); assay: TGR5 cAMP Assay using Cisbio cAMP Dynamic2 htrf kit (hTGR5CRE-luc HEK 293 cells); format: cell-based; conditions: h-TGR5 cAMP EC50, Table 1; read-out: cAMP (EC50)
T2 construct: expressed in transfected cells
T2 sequence (Q8TDU6 1-330): T1 sequence (Q8TDU6 1-330)
How it was run: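 […], 4000 hTGR5CRE-luc HEK 293 cells per well, with 0.5 mM IBMX and d2-cAMP, were incubated 30 min at room temperature with compounds in 8-point half-log series, in quadruplicate.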

Q: With `CC(C)(c1ccc(S(N)(=O)=O)c(Cl)c1)c1cnc(SCc2ccc(S(=O)(=O)NC(=O)NN3CCOCC3)cc2Cl)n1-c1ccc(F)c(F)c1` [4-({[5-{1-[4-(aminosulfonyl)-3-chlorophenyl]-1-methylethyl}-1-(3,4-difluorophenyl)-1H-imidazol-2-yl]thio}methyl)-3-chloro-N-[(morpholin-4-ylamino)carbonyl]benzenesulfonamide] as the compound, how does the EC50 (human TGR5 (h-TGR5)) read?
A: 100 to 1000 nM

Q: And the EC50 (h-TGR5)?
A: 100 to 1000 nM

Q: `CC(C)(c1ccc(S(N)(=O)=O)c(Cl)c1)c1cnc(SCc2ccc(S(=O)(=O)NC(=O)NN3CCOCC3)cc2Cl)n1-c1ccc(F)c(Cl)c1` [4-({[5-{1-[4-(aminosulfonyl)-3-chlorophenyl]-1-methylethyl}-1-(3-chloro-4-fluorophenyl)-1H-imidazol-2-yl]thio}methyl)-3-chloro-N-[(morpholin-4-ylamino)carbonyl]benzenesulfonamide] was tested. Which EC50 (human TGR5 (h-TGR5)) did it give?
A: 100 to 1000 nM

Q: What about the EC50 (h-TGR5) of the same compound?
A: 100 to 1000 nM

Q: For `CC(C)(c1ccc(S(N)(=O)=O)c(Cl)c1)c1cnc(SCc2c(F)cc(C(=O)O)cc2F)n1-c1ccc(F)cc1` [4-({[5-{1-[4-(aminosulfonyl)-3-chlorophenyl]-1-methylethyl}-1-(4-fluorophenyl)-1H-imidazol-2-yl]thio}methyl)-3,5-difluorobenzoic acid], which EC50 (human TGR5 (h-TGR5)) is on record?
A: < 100 nM

Q: And the EC50 (h-TGR5)?
A: < 100 nM

Q: Which EC50 (human TGR5 (h-TGR5)) does the source give for `CC(C)(c1ccc(S(N)(=O)=O)c(Cl)c1)c1cnc(SCc2c(F)cc(C(=O)O)cc2Cl)n1-c1ccc(F)cc1` [4-({[5-{1-[4-(aminosulfonyl)-3-chlorophenyl]-1-methylethyl}-1-(4-fluorophenyl)-1H-imidazol-2-yl]thio}methyl)-3-chloro-5-fluorobenzoic acid] here?
A: < 100 nM

Q: What about the EC50 (h-TGR5) of the same compound?
A: < 100 nM

Q: `CC(C)(c1ccc(S(N)(=O)=O)c(Cl)c1)c1cnc(SCc2ccc(S(=O)(=O)NC(=O)NN3CCCC3)cc2Cl)n1-c1ccc(F)cc1` [4-({[5-{1-[4-(aminosulfonyl)-3-chlorophenyl]-1-methylethyl}-1-(4-fluorophenyl)-1H-imidazol-2-yl]thio}methyl)-3-chloro-N-[(pyrrolidin-1-ylamino)carbonyl]benzenesulfonamide] was tested. Which EC50 (human TGR5 (h-TGR5)) did it give?
A: 100 to 1000 nM

Q: What about the EC50 (h-TGR5) of the same compound?
A: 100 to 1000 nM

Q: Which results are given for `CC(C)(c1ccc(S(N)(=O)=O)c(Cl)c1)c1cnc(SCc2c(F)cc(C(=O)O)cc2F)n1-c1ccc(F)cn1` [4-({[5-{1-[4-(aminosulfonyl)-3-chlorophenyl]-1-methylethyl}-1-(5-fluoropyridin-2-yl)-1H-imidazol-2-yl]thio}methyl)-3,5-difluorobenzoic acid]?
A: EC50 (human TGR5 (h-TGR5)): 100 to 1000 nM; EC50 (h-TGR5): 100 to 1000 nM

Q: For `COc1cc(C(C)(C)c2cnc(S(=O)(=O)CC3CCN(S(C)(=O)=O)CC3)n2-c2ccc(F)cc2)ccc1Cl` [4-({[5-{1-[4-chloro-3-(methyloxy)phenyl]-1-methylethyl}-1-(4-fluorophenyl)-1H-imidazol-2-yl]sulfonyl}methyl)-1-(methylsulfonyl)piperidine], which EC50 (human TGR5 (h-TGR5)) is on record?
A: 100 to 1000 nM

Q: And the EC50 (h-TGR5)?
A: 100 to 1000 nM

Q: What does the source list for `COc1cc(C(C)(C)c2cnc(SCC3CCN(c4nnn[nH]4)CC3)n2-c2ccc(F)cc2)ccc1Cl` [4-({[5-{1-[4-chloro-3-(methyloxy)phenyl]-1-methylethyl}-1-(4-fluorophenyl)-1H-imidazol-2-yl]thio}methyl)-1-(1H-tetrazol-5-yl)piperidine]?
A: EC50 (human TGR5 (h-TGR5)): < 100 nM; EC50 (h-TGR5): 100 to 1000 nM

Q: What does the source list for `COc1cc(C(C)(C)c2cnc(SCC3CCN(S(C)(=O)=O)CC3)n2-c2ccc(F)cc2)ccc1Cl` [4-({[5-{1-[4-chloro-3-(methyloxy)phenyl]-1-methylethyl}-1-(4-fluorophenyl)-1H-imidazol-2-yl]thio}methyl)-1-(methylsulfonyl)piperidine]?
A: EC50 (human TGR5 (h-TGR5)): < 100 nM; EC50 (h-TGR5): < 100 nM

Q: Which EC50 (human TGR5 (h-TGR5)) does the source give for `COc1cc(C(C)(C)c2cnc(SCc3ccc(C(=O)O)c(F)c3)n2-c2ccc(F)cc2)ccc1Cl` [4-({[5-{1-[4-chloro-3-(methyloxy)phenyl]-1-methylethyl}-1-(4-fluorophenyl)-1H-imidazol-2-yl]thio}methyl)-2-fluorobenzoic acid] here?
A: 100 to 1000 nM

Q: What about the EC50 (h-TGR5) of the same compound?
A: < 100 nM

Q: What does the source list for `COc1cc(C(C)(C)c2cnc(SCc3c(F)cc(S(=O)(=O)NC(=O)NN4CCOCC4)cc3F)n2-c2ccc(F)cc2)ccc1Cl` [4-({[5-{1-[4-chloro-3-(methyloxy)phenyl]-1-methylethyl}-1-(4-fluorophenyl)-1H-imidazol-2-yl]thio}methyl)-3,5-difluoro-N-[(morpholin-4-ylamino)carbonyl]benzenesulfonamide]?
A: EC50 (human TGR5 (h-TGR5)): < 100 nM; EC50 (h-TGR5): < 100 nM

Q: What does the source list for `COc1cc(C(C)(C)c2cnc(SCc3c(F)cc(C(=O)NO)cc3F)n2-c2ccc(F)cc2)ccc1Cl` [4-({[5-{1-[4-chloro-3-(methyloxy)phenyl]-1-methylethyl}-1-(4-fluorophenyl)-1H-imidazol-2-yl]thio}methyl)-3,5-difluoro-N-hydroxybenzamide]?
A: EC50 (human TGR5 (h-TGR5)): < 100 nM; EC50 (h-TGR5): < 100 nM

Q: What does the source list for `COc1cc(C(C)(C)c2cnc(SCc3c(F)cc(S(N)(=O)=O)cc3F)n2-c2ccc(F)cc2)ccc1Cl` [4-({[5-{1-[4-chloro-3-(methyloxy)phenyl]-1-methylethyl}-1-(4-fluorophenyl)-1H-imidazol-2-yl]thio}methyl)-3,5-difluorobenzenesulfonamide]?
A: EC50 (human TGR5 (h-TGR5)): < 100 nM; EC50 (h-TGR5): < 100 nM

Q: Which results are given for `COc1cc(C(C)(C)c2cnc(SCc3ccc(S(=O)(=O)NC(=O)NN4CCCC4)cc3F)n2-c2ccc(F)cc2)ccc1Cl` [4-({[5-{1-[4-chloro-3-(methyloxy)phenyl]-1-methylethyl}-1-(4-fluorophenyl)-1H-imidazol-2-yl]thio}methyl)-3-fluoro-N-[(pyrrolidin-1-ylamino)carbonyl]benzenesulfonamide]?
A: EC50 (human TGR5 (h-TGR5)): < 100 nM; EC50 (h-TGR5): 100 to 1000 nM

Q: Which results are given for `COc1cc(C(C)(C)c2cnc(SCc3ccc(C(=O)O)cc3F)n2-c2ccc(F)cc2)ccc1Cl` [4-({[5-{1-[4-chloro-3-(methyloxy)phenyl]-1-methylethyl}-1-(4-fluorophenyl)-1H-imidazol-2-yl]thio}methyl)-3-fluorobenzoic acid]?
A: EC50 (human TGR5 (h-TGR5)): < 100 nM; EC50 (h-TGR5): < 100 nM

Q: How did the EC50 (human TGR5 (h-TGR5)) turn out when `COc1cc(C(C)(C)c2cnc(SCc3ccnc(N)c3)n2-c2ccc(F)cc2)ccc1Cl` [4-({[5-{1-[4-chloro-3-(methyloxy)phenyl]-1-methylethyl}-1-(4-fluorophenyl)-1H-imidazol-2-yl]thio}methyl)pyridin-2-amine] was run?
A: 100 to 1000 nM

Q: And the EC50 (h-TGR5)?
A: 100 to 1000 nM

Q: What does the source list for `COc1cc(C(C)(C)c2cnc(SCc3c(F)cc(S(=O)(=O)NC(=O)NN4CCOCC4)cc3F)n2-c2ccc(F)cn2)ccc1Cl` [4-({[5-{1-[4-chloro-3-(methyloxy)phenyl]-1-methylethyl}-1-(5-fluoropyridin-2-yl)-1H-imidazol-2-yl]thio}methyl)-3,5-difluoro-N-[(morpholin-4-ylamino)carbonyl]benzenesulfonamide]?
A: EC50 (human TGR5 (h-TGR5)): 100 to 1000 nM; EC50 (h-TGR5): 100 to 1000 nM

Q: `COc1cc(C(C)(C)c2cnc(SCc3c(F)cc(C(=O)O)cc3F)n2-c2ccc(F)cc2)ccc1Cl` [4-({[5-{l-[4-chloro-3-(methyloxy)phenyl]-1-methylethyl}-1-(4-fluorophenyl)-1H-imidazol-2-yl]thio}methyl)-3,5-difluorobenzoic acid] was tested. Which EC50 (human TGR5 (h-TGR5)) did it give?
A: < 100 nM

Q: What about the EC50 (h-TGR5) of the same compound?
A: < 100 nM

Q: `CC(C)(c1ccc(Cl)c(Cl)c1)c1cnc(SCC2CCN(c3nnn[nH]3)CC2)n1-c1ccc(F)c(Cl)c1` [4-[({1-(3-chloro-4-fluorophenyl)-5-[1-(3,4-dichlorophenyl)-1-methylethyl]-1H-imidazol-2-yl}thio)methyl]-1-(1H-tetrazol-5-yl)piperidine] was tested. Which EC50 (human TGR5 (h-TGR5)) did it give?
A: < 100 nM

Q: And the EC50 (h-TGR5)?
A: 100 to 1000 nM

Q: With `CC(C)(c1ccc(Cl)c(Cl)c1)c1cnc(SCC2CCN(S(C)(=O)=O)CC2)n1-c1ccc(F)c(Cl)c1` [4-[({1-(3-chloro-4-fluorophenyl)-5-[1-(3,4-dichlorophenyl)-1-methylethyl]-1H-imidazol-2-yl}thio)methyl]-1-(methylsulfonyl)piperidine] as the compound, how does the EC50 (human TGR5 (h-TGR5)) read?
A: < 100 nM

Q: What about the EC50 (h-TGR5) of the same compound?
A: 100 to 1000 nM

Q: `CC(C)(c1ccc(Cl)c(Cl)c1)c1c(Cl)nc(SCc2c(F)cc(C(=O)O)cc2F)n1-c1ccc(F)cc1` [4-[({4-chloro-5-[1-(3,4-dichlorophenyl)-1-methylethyl]-1-(4-fluorophenyl)-1H-imidazol-2-yl}thio)methyl]-3,5-difluorobenzoic acid] was tested. Which EC50 (human TGR5 (h-TGR5)) did it give?
A: 100 to 1000 nM

Q: What about the EC50 (h-TGR5) of the same compound?
A: 100 to 1000 nM

Q: With `Cc1cc(-n2c(C(C)(C)c3ccc(Cl)c(Cl)c3)cnc2SCc2c(F)cc(C(=O)O)cc2F)ccc1F` [4-[({5-[1-(3,4-dichlorophenyl)-1-methylethyl]-1-(4-fluoro-3-methylphenyl)-1H-imidazol-2-yl}thio)methyl]-3,5-difluorobenzoic acid] as the compound, how does the EC50 (human TGR5 (h-TGR5)) read?
A: < 100 nM

Q: And the EC50 (h-TGR5)?
A: < 100 nM

Q: `CC(C)(c1ccc(Cl)c(Cl)c1)c1cnc(COC2CCN(S(C)(=O)=O)CC2)n1-c1ccc(F)cc1` [4-[({5-[1-(3,4-dichlorophenyl)-1-methylethyl]-1-(4-fluorophenyl)-1H-imidazol-2-yl}methyl)oxy]-1-(methylsulfonyl)piperidine] was tested. Which EC50 (human TGR5 (h-TGR5)) did it give?
A: 1000 to 10000 nM

Q: And the EC50 (h-TGR5)?
A: 100 to 1000 nM

Q: Which EC50 (human TGR5 (h-TGR5)) does the source give for `CC(C)(c1ccc(Cl)c(Cl)c1)c1cnc(SCC2CCN(c3nnn[nH]3)CC2)n1-c1ccc(F)cc1` [4-[({5-[1-(3,4-dichlorophenyl)-1-methylethyl]-1-(4-fluorophenyl)-1H-imidazol-2-yl}thio)methyl]-1-(1H-tetrazol-5-yl)piperidine] here?
A: < 100 nM

Q: And the EC50 (h-TGR5)?
A: 100 to 1000 nM
